The record followed here is patent US20240415918A1, “Polypeptide and its use as a CCK receptor agonist/antagonist” (Centre for Regenerative Medicine & Health, Hong Kong …, priority 2021, published 2024).

“Also recorded” adds a separate entry of the source.

Common to all, as to assay type: in vivo
Assay [1] concerns tri-transgenic Alzheimer's mice (3×Tg-AD). Nature of the assay: New object recognition experiment, Alzheimer's mice. The following applies: intraperitoneal injection. The source says: (§1) The new object recognition experiment is a highly validated method of cognitive memory, designed by Ennaceur & Delacour (1988) based on the exploration characteristics of rodents to new environments, and this model evaluates the memory function of the tested animal based on the length of time that the animal spends in exploring familiar objects it has seen in the environment and new objects it has not seen. […] The experiment is usually divided into three stages: 1. Adaptation period: let the animal be familiar with the experimental environment, and no objects are placed in the experimental box; 2. Familiarization period: place two identical objects in the experimental box and let the mice explore freely for 10 minutes; 3. Test period: put a new object in the experimental box to replace one of the old objects, and the positions of the objects remain unchanged. The exploration of mice was recorded with video, and the time spent in exploring the old and new objects by mice was analyzed, and the proportion of time spent in exploring the new object by mice in the test period accounting for the total time for exploring the objects was calculated, that is, the recognition index of new objects.
Adult male tri-transgenic Alzheimer's mice (3×Tg-AD) were housed under standard conditions with free access to food and water. […]

Assay [2] relates to memory-deficient mice. The assay can be described thus: Morris water maze, memory-deficient mice. The following applies: intraperitoneal injection, CCK4 four times a day 10 days, HT compounds once a day 8 days. The text has this:
Adult memory-deficient mice were housed under standard conditions with free access to food and water. Our Morris water maze experiment for testing memory-deficient mice mainly included two parts: positioning navigation experiment and space exploration experiment. The experimental methods were the same as Example 5. We randomized memory-deficient mice into six groups, with the first group given intraperitoneal injection of the CCK4 solution, the second group given intraperitoneal injection of the solvent of CCK4 solution as a control, the third group given intraperitoneal injection of the compound HT-267 solution, the fourth group given intraperitoneal injection of the compound HT-177 solution, the fifth group given intraperitoneal injection of the compound HT-178 solution, and the sixth group given intraperitoneal injection of the solvent of compound solution as a control. In the positioning navigation experiment, the treatment and training methods of the first and the second groups were the same as those of the first and second groups in Example 5, that is, four times of treatment a day, four times of training a day, for a total of 10 days of training. The treatment and training methods of the third to sixth groups were the same as the third and fourth groups in Example 5, that is, one treatment a day, four times of training a day, for a total of 8 days of training. In the space exploration experiment, the spatial memory ability of mice was tested in the same way for each group.

Assay [3] deals with memory-deficient mice. The assay can be described thus: New object recognition experiment, memory-deficient mice. The following applies: intraperitoneal injection.
Source text: as §1
Adult memory-deficient mice were housed under standard conditions with free access to food and water. Our new object recognition experiment for testing memory-deficient mice mainly included the adaptation period, the familiarization period, and the test period. The experimental method was the same as Example 12.
We randomized memory-deficient mice into four groups, with one group given intraperitoneal injection of the solvent of drug as the control group, administration group 1 given intraperitoneal injection of the compound HT-267 solution, administration group 2 given intraperitoneal injection of the compound HT-177 solution, and administration group 3 given intraperitoneal injection of the compound HT-178 solution. After the adaptation and familiarization period training, we tested the recognition memory of several groups of mice in the test period experiment.

Turning to `CSCC[C@H](NC(=O)[C@@H](Cc1c[nH]c2ccccc12)NC(C)=O)C(=O)N[C@@H](CC(=O)O)C(=O)N[C@@H](Cc1cccc(Br)c1)C(N)=O` [HT-267, Ac-D-Trp-Met-Asp-Phe(3-Br)-NH2], the “recognition index of new objects vs control” value (in assay [1]; in the assay with memory-deficient mice [3]) was “significantly higher than that of the control group” each time. Moreover, in the assay on memory-deficient mice [2], the “proportion of exploration duration in the target quadrant vs control” value is on record as “significantly higher than that in the control group; also recorded: best effect”.
